Six molecules from patent US8575208B2, “Inhibitors of serine proteases” (priority 2007, dated 2013) can be followed below.

T1 sequence (Q9WMX2 1027-1657): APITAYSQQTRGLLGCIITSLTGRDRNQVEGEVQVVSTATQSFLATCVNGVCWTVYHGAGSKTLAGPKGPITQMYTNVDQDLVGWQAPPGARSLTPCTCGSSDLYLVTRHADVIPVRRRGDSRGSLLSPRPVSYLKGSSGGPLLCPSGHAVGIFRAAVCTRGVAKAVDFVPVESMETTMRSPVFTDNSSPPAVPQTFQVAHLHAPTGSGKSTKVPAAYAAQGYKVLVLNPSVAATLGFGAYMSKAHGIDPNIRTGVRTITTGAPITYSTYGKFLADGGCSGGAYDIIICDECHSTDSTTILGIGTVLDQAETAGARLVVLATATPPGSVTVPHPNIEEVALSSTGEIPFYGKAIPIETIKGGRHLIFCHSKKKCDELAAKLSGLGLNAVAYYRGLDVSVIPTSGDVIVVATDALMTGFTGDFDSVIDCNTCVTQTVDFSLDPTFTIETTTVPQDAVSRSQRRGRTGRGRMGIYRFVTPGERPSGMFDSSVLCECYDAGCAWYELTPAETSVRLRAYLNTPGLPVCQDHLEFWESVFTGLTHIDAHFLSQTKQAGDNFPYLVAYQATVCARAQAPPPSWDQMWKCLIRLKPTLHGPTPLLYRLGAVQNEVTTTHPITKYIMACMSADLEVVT

This assay addresses T1, HCV NS3 serine protease (UniProt Q9WMX2).
T1 construct: fused on or other part: Assay 1: C-terminal hexa-histidine tag
The experiment in a line: HCV enzymatic assay (HCV NS3 peptide cleavage assays, apparent Ki). It is filed as biochemical, hepatitis C virus. Particulars: serine protease activity measured using the HCV Enzyme Assays; Assay No. 1 / Assay No. 2 not given. Here is the method:
This assay is a modification of that described by Landro, et al. (Landro J A, Raybuck S A, Luong Y C, O'Malley E T, Harbeson S L, Morgenstern K A, Rao G and Livingston D L. Biochemistry 1997, 36, 9340-9348), and uses a peptide substrate (NS5AB), based on the NS5A/NS5B cleavage site for genotype la HCV. The substrate stock solution (25 mM) was prepared in DMSO containing 0.2 M DTT and stored at −20° C. A synthetic peptide cofactor (KK4A) was used as a substitute for the central core region of NS4A. The reaction was performed in a 96-well microtiter plate format using 25 ηM to 50 ηM HCV NS3 protease domain in buffer containing 50 mM HEPES pH 7.8, 100 mM NaCl, 20% glycerol, 5 mM DTT and 25 μM KK4A. The final DMSO concentration was no greater than 2% v/v. Reactions were quenched by addition of trifluoroacetic acid (TFA) to yield a final concentration of 2.5%.
The SMSY product was separated from substrate and KK4A using a microbore separation method. The instrument used was a Agilent 1100 with a G1322A degasser, either a G1312A binary pump or a G1311A quaternary pump, a G1313A autosampler, a G1316A column thermostated chamber and a G1315A diode array detector. The column was a Phenomenex Jupiter, 5 μm C18, 300 Å, 150×2 mm, P/O 00F-4053-B0, with a flow-rate of 0.2 mL/min. The column thermostat was at 40° C. Mobile phases were HPLC grade H2O/0.1% TFA (solvent A) and HPLC grade CH3CN/0.1% TFA (solvent B). The SMSY product peak was quantitated using the data collected at […].
This assay follows the cleavage of a peptide substrate by full-length hepatitis C viral protein NS3•4A. One of three peptide substrates based on the NS5A/NS5B cleavage site for genotype 1a HCV is used to measure enzyme activity. All substrate stock solutions (25 mM) were prepared in DMSO containing 0.2M DTT and stored at −20° C. A synthetic peptide cofactor (NS4A Peptide) was used to supplement NS4A. Peptide sequences are shown below. The hydrolysis reaction was performed in a 96-well microtiter plate format using 100 ηM to 125 ηM HCV NS3•4A in buffer containing 50 mM HEPES pH 7.8, 100 mM NaCl, 20% glycerol, 5 mM DTT and 25 μM NS4A Peptide. The final DMSO concentration was no greater than 2% v/v. Reactions using NS5AB or NS5AB-EDANS as substrate were quenched by the addition of 10% trifluoroacetic acid (TFA) to yield a final TFA concentration of 2.5%. Reactions using FITC-NS5AB-1 as substrate were quenched by the addition of 0.4M formic acid to yield a final concentration of 0.08M acid.
Enzymatic activity was assessed by separation of substrate and products by reverse phase HPLC. The instrument used was a Agilent 1100 with a G1322A degasser, either a G1312A binary pump or a G1311A quaternary pump, a G1313A autosampler, a G1316A column thermostated chamber, a G1321A fluorescence detector and a G1315A diode array detector. The column thermostat was at 40° C. For substrate NS5AB the column was a Phenomenex Jupiter, 5 μm C18, 300 Å, 150×2 mm, P/O 00F-4053-B0, with a flow-rate of 0.2 mL/min using HPLC grade H2O/0.1% TFA (solvent A) and HPLC grade CH3CN/0.1% TFA (solvent B) as mobile phases. The C-terminal product peak (NH2-SMSY-COOH) was quantitated using the absorbance data collected at 210 ηm. For substrate NS5AB-EDANS the column was a Phenomenex Aqua, 5 μm C18, 125 Å, 50×4.6 mm, P/O 00B-4299-E0, with a flow-rate of 1.0 mL/min using HPLC grade H2O/0.1% TFA (solvent A) and HPLC grade CH3CN/0.1% TFA (solvent B) as mobile phases. The C-terminal product peak (NH2-SMSYT-Asp(EDANS)-KKK-COOH) was quantitated using the fluorescence data collected at 350 ηm excitation/490 ηm emission. For substrate FITC-NS5AB-1 the column was a Phenomenex Prodigy, 5 μm ODS(2), 125 Å, 50×4.6 mm, P/O 00B-3300-E0, with a flow-rate of 1.0 mL/min using 10 mM sodium phosphate pH 7.0 in HPLC grade H2O (solvent A) and 65% HPLC Grade CH3CN/35% 10 mM sodium phosphate pH 7.0 in HPLC grade H2O (solvent B) as mobile phases. […]
As for `CCC[C@H](NC(=O)[C@@H]1C[C@@]2(CN(c3cccc(Cl)c3)C(=O)O2)CN1C(=O)[C@@H](NC(=O)OC1CCCC1)C(C)(C)C)C(=O)C(=O)NC1CC1` [compound 7, Cyclopentyl (S)-1-((5S,8S)-3-(3-chlorophenyl)-8-((S)-1-(cyclopropylamino)-1,2-dioxohexan-3-ylcarbamoyl)-2-oxo-1-oxa-3,7-diazaspiro[4.4]nonan-7-yl)-3,3-dimethyl-1-oxobutan-2-ylcarbamate], the Ki was less than 410 nM.

With `CCC[C@H](NC(=O)[C@@H]1C[C@@]2(CC(=O)N(c3cccc(Cl)c3)C2)CN1C(=O)[C@@H](NC(=O)CC1CCCCC1)C(C)(C)C)C(=O)C(=O)NC1CC1` [compound 2], the Ki was more than 700 nM.

As for `CCC[C@H](NC(=O)[C@@H]1C[C@]2(CC(=O)N(c3cccc(Cl)c3)C2)CN1C(=O)[C@@H](NC(=O)CC1CCCCC1)C(C)(C)C)C(=O)C(=O)NC1CC1` [compound 6], the Ki lay in the range of 410 to 700 nM.

Take `CCC[C@H](NC(=O)[C@@H]1C[C@@]2(CC(=O)N(c3ccccc3)C2)CN1C(=O)[C@@H](NC(=O)OC1CCCC1)C(C)(C)C)C(=O)C(=O)NC1CC1` [compound 1, Cyclopentyl-(S)-1-((3S,5R)-3-((S)-1-(cyclopropylamino)-1,2-dioxohexan-3-ylcarbamoyl)-8-oxo-7-phenyl-2,7-diazaspiro[4.4]nonan-2-yl)-3,3-dimethyl-1-oxobutan-2-ylcarbamate]: the Ki lay within 410 to 700 nM.

`CCC[C@H](NC(=O)[C@@H]1C[C@]2(CC(=O)N(c3ccccc3)C2)CN1C(=O)[C@@H](NC(=O)OC1CCCC1)C(C)(C)C)C(=O)C(=O)NC1CC1` [compound 4, cyclopentyl (S)-1-((3S,5S)-3-((S)-1-(cyclopropylamino)-1,2-dioxohexan-3-ylcarbamoyl)-8-oxo-7-phenyl-2,7-diazaspiro[4.4]nonan-2-yl)-3,3-dimethyl-1-oxobutan-2-ylcarbamate]: the Ki was less than 410 nM.

For the molecule `CCC[C@H](NC(=O)[C@@H]1C[C@]2(CN(c3ccccc3)C(=O)O2)CN1C(=O)[C@@H](NC(=O)CC1CCCCC1)C(C)(C)C)C(=O)C(=O)NC1CC1` [compound 5, (5R,8S)-7-((S)-2-(2-cyclohexylacetamido)-3,3-dimethylbutanoyl)-N-((S)-1-(cyclopropylamino)-1,2-dioxohexan-3-yl)-2-oxo-3-phenyl-1-oxa-3,7-diazaspiro[4.4]nonane-8-carboxamide], the Ki was more than 700 nM.
